Common to all, as to assay type: functional, organism-based
Experiment [1] has as its system Plasmodium falciparum. Put plainly: Antimalarial activity against Plasmodium falciparum 7G8 harboring pfATP6 263E mutant assessed as inhibition of [3H]hypoxanthine incorporation.
Experiment [2] relates to Plasmodium falciparum. Nature of the experiment: Antimalarial activity against Plasmodium falciparum D10 clone 1 assessed as inhibition of [3H]hypoxanthine incorporation.
Experiment [3] relates to Plasmodium falciparum. Put plainly: Antimalarial activity against Plasmodium falciparum D10 clone 2 assessed as inhibition of [3H]hypoxanthine incorporation.
The subject of experiment [4] is Plasmodium falciparum. Put plainly: Antimalarial activity against Plasmodium falciparum D10 clone M1 assessed as inhibition of [3H]hypoxanthine incorporation.
In experiment [5] the test system is Plasmodium falciparum. Put plainly: Antimalarial activity against Plasmodium falciparum 7G8 clone M2 assessed as inhibition of [3H]hypoxanthine incorporation.
Experiment [6] concerns Plasmodium falciparum. Nature of the experiment: Antimalarial activity against Plasmodium falciparum D10 harboring pfATP6 L263 mutant assessed as inhibition of [3H]hypoxanthine incorporation.
Experiment [7] deals with Plasmodium falciparum. Nature of the experiment: Antimalarial activity against Plasmodium falciparum 7G8 clone 1 assessed as inhibition of [3H]hypoxanthine incorporation.
Experiment [8] deals with Plasmodium falciparum. Nature of the experiment: Antimalarial activity against Plasmodium falciparum D10 clone M1 harboring pfATP6 L263 mutant assessed as inhibition of [3H]hypoxanthine incorporation.
In experiment [9] the test system is Plasmodium falciparum. Nature of the experiment: Antimalarial activity against Plasmodium falciparum 7G8 clone 1 harboring pfATP6 L263 mutant assessed as inhibition of [3H]hypoxanthine incorporation.
Experiment [10] has as its system Plasmodium falciparum. Put plainly: Antimalarial activity against Plasmodium falciparum 7G8 clone 2 assessed as inhibition of [3H]hypoxanthine incorporation.
Experiment [11] has as its system Plasmodium falciparum. Put plainly: Antimalarial activity against Plasmodium falciparum 7G8 clone M1 assessed as inhibition of [3H]hypoxanthine incorporation.
For experiment [12], the system named is Plasmodium falciparum. Nature of the experiment: Antimalarial activity against Plasmodium falciparum 7G8 harboring pfATP6 L263 mutant assessed as inhibition of [3H]hypoxanthine incorporation.
For experiment [13], the system named is Plasmodium falciparum. Put plainly: Antimalarial activity against Plasmodium falciparum 7G8 clone M4 assessed as inhibition of [3H]hypoxanthine incorporation.
Experiment [14] concerns Plasmodium falciparum. Put plainly: Antimalarial activity against Plasmodium falciparum D10 clone 1 harboring pfATP6 L263 mutant assessed as inhibition of [3H]hypoxanthine incorporation.
Experiment [15] concerns Plasmodium falciparum. Nature of the experiment: Antimalarial activity against Plasmodium falciparum D10 clone M3 assessed as inhibition of [3H]hypoxanthine incorporation.
Experiment [16] has as its system Plasmodium falciparum. Nature of the experiment: Antimalarial activity against Plasmodium falciparum D10 harboring pfATP6 263E mutant assessed as inhibition of [3H]hypoxanthine incorporation.
In experiment [17] the test system is Plasmodium falciparum. Put plainly: Antimalarial activity against Plasmodium falciparum D10 clone M2 assessed as inhibition of [3H]hypoxanthine incorporation.
Experiment [18] relates to Plasmodium falciparum. Nature of the experiment: Antimalarial activity against Plasmodium falciparum 7G8 clone M3 assessed as inhibition of [3H]hypoxanthine incorporation.
The test system of experiment [19] is Plasmodium falciparum. Put plainly: Antimalarial activity against Plasmodium falciparum 7G8 clone M1 harboring pfATP6 L263 mutant assessed as inhibition of [3H]hypoxanthine incorporation.

The IC50 is the concentration that gives 50% inhibition. Consider `C[C@@H]1CC[C@H]2[C@@H](C)C(=O)O[C@@H]3O[C@@]4(C)CC[C@@H]1[C@]32OO4` [ARTEMISININ], for which the IC50 with Plasmodium falciparum [1] was 22.3 nM; with Plasmodium falciparum [2], 47.6 nM; with Plasmodium falciparum [3] it was 34.3 nM; in the experiment with Plasmodium falciparum [4], 62.3 nM; in the experiment with Plasmodium falciparum [5] it was 19.7 nM; in the experiment on Plasmodium falciparum [6] it was 42.8 nM. The IC50 in the experiment on Plasmodium falciparum [7] was determined as 20.6 nM; in the experiment on Plasmodium falciparum [8], 51.6 nM; in the experiment on Plasmodium falciparum [9] it was 20.7 nM; with Plasmodium falciparum [10] it was 20.9 nM; in the experiment on Plasmodium falciparum [11], 25.2 nM; with Plasmodium falciparum [12], 20.7 nM. The IC50 was determined as 25.3 nM with Plasmodium falciparum [13]; 42.8 nM in the experiment with Plasmodium falciparum [14]; 36.8 nM in the experiment with Plasmodium falciparum [15]; 51.6 nM in the experiment with Plasmodium falciparum [16]; 55.8 nM with Plasmodium falciparum [17]; 20.5 nM with Plasmodium falciparum [18]. Moreover, the IC50 in the experiment on Plasmodium falciparum [19] is 22.3 nM.
In the case of `C[C@H]1[C@@H](O)O[C@@H]2O[C@@]3(C)CC[C@H]4[C@H](C)CC[C@@H]1[C@@]24OO3` [ARTENIMOL], the IC50 was found to be 1.3 nM with Plasmodium falciparum [1]; 3.42 nM in the experiment with Plasmodium falciparum [2]; 3.38 nM with Plasmodium falciparum [3]; 3.79 nM in the experiment with Plasmodium falciparum [4]; 2.19 nM in the experiment with Plasmodium falciparum [5]; 3.41 nM with Plasmodium falciparum [6]. The IC50 in the experiment with Plasmodium falciparum [7] was 2.01 nM; in the experiment on Plasmodium falciparum [8], 3.96 nM; in the experiment with Plasmodium falciparum [9] it was 2.26 nM; in the experiment on Plasmodium falciparum [10], 2.76 nM; in the experiment on Plasmodium falciparum [11] it was 2.58 nM; in the experiment with Plasmodium falciparum [12], 2.26 nM. The IC50 worked out at 2.25 nM in the experiment with Plasmodium falciparum [13]; 3.41 nM in the experiment on Plasmodium falciparum [14]; 3.56 nM with Plasmodium falciparum [15]; 3.96 nM with Plasmodium falciparum [16]; 4.52 nM in the experiment with Plasmodium falciparum [17]; 2.41 nM with Plasmodium falciparum [18]. The IC50 with Plasmodium falciparum [19] is 2.37 nM.
Turning to `C[C@H]1[C@H](OC(=O)CCC(=O)O)O[C@@H]2O[C@@]3(C)CC[C@H]4[C@H](C)CC[C@@H]1[C@@]24OO3` [ARTESUNATE], the IC50 in the experiment on Plasmodium falciparum [1] was 14.9 nM; in the experiment on Plasmodium falciparum [2] it was 26.6 nM; in the experiment on Plasmodium falciparum [3], 16.8 nM; with Plasmodium falciparum [4] it was 26.5 nM; in the experiment with Plasmodium falciparum [5] it was 13.3 nM; in the experiment with Plasmodium falciparum [6], 23.6 nM. In addition, the IC50 amounted to 14.2 nM with Plasmodium falciparum [7]; 26.2 nM in the experiment on Plasmodium falciparum [8]; 13.5 nM in the experiment on Plasmodium falciparum [9]; 12.1 nM in the experiment with Plasmodium falciparum [10]; 16 nM in the experiment on Plasmodium falciparum [11]; 13.5 nM with Plasmodium falciparum [12]. The IC50 with Plasmodium falciparum [13] came out at 21.3 nM; in the experiment on Plasmodium falciparum [14] it was 23.6 nM; in the experiment on Plasmodium falciparum [15], 24.3 nM; with Plasmodium falciparum [16], 26.2 nM; in the experiment with Plasmodium falciparum [17], 27.7 nM; with Plasmodium falciparum [18], 12.4 nM. In the experiment with Plasmodium falciparum [19], the IC50 was determined as 14.9 nM.
